Measurements as given in paper PMC5559406, “A human PET study of [^11C]HMS011, a potential radioligand for AMPA receptors” (EJNMMI Research, 2017).

Target: T1, human AMPA receptors
T1 construct: gene GRIA1; assay details only in supplement
Assay: radioligand receptor binding assay (details in supplement)
Settings: labelled compound; noncompetitive (perampanel derivative); subunit not told

Compound `CNc1cccc(-n2cc(-c3ncccn3)cc(-c3ccccc3C#N)c2=O)c1` [[11C]HMS011, 2-(1-(3-([^11C]methylamino)phenyl)-2-oxo-5-(pyrimidin-2-yl)-1,2-dihydropyridin-3-yl) benzonitrile] has a Kd of roughly 15 nM.
